# In US10028992B2, “Methods of treating muscular dystrophy” (BOARD OF REGENTS OF THE NEVADA SYSTEM OF HIGHER EDUCATION …, priority 2012, dated 2018):
# Where two headings read alike, the source gives them in different places.
# System: α7 integrin promoter
# Assay: muscle cell-based assay: α7βgal+/− myoblasts/myotubes, LacZ reporter, β-galactosidase cleavage of FDG
# Design: species or system mouse
# Conditions: for AC50: Mus musculus, read-out: Fit Log AC50 (converted)
# Protocol: An α7 integrin null mouse was produced in which exon 1 of the gene encoding the α7 integrin was replaced by the LacZ reporter. In these mice, all the transcriptional regulatory elements of the α7 integrin promoter were retained, allowing β-galactosidase to report expression of 7 integrin. A primary myoblast cell line (designated α7βgal^+/−) isolated from 10 day old α7^+/− pups were analyzed for the ability of β-galactosidase to report α7 integrin expression. α7βgal^+/− myoblasts were differentiated and subjected to X-gal staining and western analysis (FIGS. 1A and 1B).
# The activity of the α7 integrin promoter was measured by β-galactosidase cleavage of the non-fluorescent compound fluorescein di-β-D-galactopyranoside (FDG) to fluorescein. This assay was used to screen compound libraries to identify molecules that up-regulate α7 integrin expression in muscle.
# Also evaluated was the effect of various isoforms of laminin and the ligand for α7β1 integrin on integrin expression. Positive hits were subjected to dose-response analysis, western analysis and a myostatin counterscreen (a negative regulator of muscle growth).
# [1] = Table 12, log of AC50, given with negative sign, unit of AC50 not given
# [2] = Table 12, fitted activity at zero concentration
# [3] = Table 12 Compound data, concentration-response curve fit
# [4] = Table 12, fitted activity at infinite concentration
SMILES,AC50 [1],"Fit HillSlope (Table 12, curve fit)",Fit Zero Activity [%] [2],"Fit Curve Class (Table 12, key not given)",Score [3],Curve Description,Fit Curve Class,Fit HillSlope,Fit Infinite Activity [%],Fit Log AC50,Fit Zero Activity [%],Score,Fit Infinite Activity [%] [4],Fit Log AC50 [1]
O=C(COC(=O)c1cc2ccccc2oc1=O)Nc1ccc(F)cc1F [Compound 60],4.47 µM,1.7529,−12.5146%,2.1,45,–,–,–,–,–,–,–,–,–
CCNC(=O)CSc1nc(-c2ccc(F)cc2)cs1 [Compound 61],5.01 µM,1.1705,−3.94%,2.1,45,–,–,–,–,–,–,–,–,–
CC(C)NC(=O)CN1CCN(C(=O)CCl)CC1.Cl [Compound 62],7.08 µM,1.9673,−23.864%,2.1,45,–,–,–,–,–,–,–,–,–
CS(=O)(=O)N(Cc1ccc(C(=O)NC2CCCC2)cc1)c1ccccc1 [Compound 63],10 µM,3.1925,−1.7425%,2.1,45,–,–,–,–,–,–,–,–,–
C=CCN(CC=C)C(=O)c1ccc(OC2CCN(S(=O)(=O)N(C)C)CC2)cc1 [Compound 64],5.01 µM,2.4729,−4.9734%,2.1,45,–,–,–,–,–,–,–,–,–
O=C(O)CCn1cc(/C=C2/NC(=S)N(c3ccccc3)C2=O)c(-c2ccccc2)n1 [Compound 65],–,–,–,–,–,Partial,2.1,4.095,501.215%,−4.7,9.2299%,45,–,–
CCc1nnc(NC(=O)c2ccc(S(=O)(=O)NCC(C)C)cc2)s1 [Compound 66],12.6 µM,4.5045,11.9175%,2.1,45,–,–,–,–,–,–,–,–,–
CC1CCCCC12NC(=O)N(CC(=O)OCc1cccc(F)c1)C2=O (centres unmarked) [Compound 67],10 µM,1.4163,4.7344%,2.1,44,–,–,–,–,–,–,–,–,–
CNc1nnc(SCC(=O)c2cc(C)n(C3CC3)c2C)s1 [Compound 68],12.6 µM,4.5045,−17.9914%,2.1,44,–,–,–,–,–,–,–,–,–
CCCCNc1nnc(SCC(=O)c2c(N)n(CCC)c(=O)[nH]c2=O)s1 [Compound 69],3.98 µM,1.3987,−2.436%,2.1,44,–,–,–,–,–,–,–,–,–
C/C(=N\OCC(=O)OC(C)C(=O)Nc1ccc(C(N)=O)cc1)c1ccc2c(c1)OCO2 (centres unmarked) [Compound 70],4.47 µM,1.2876,−19.1057%,2.1,44,–,–,–,–,–,–,–,–,–
COc1cc(C(C(=O)NC2CCCCC2)N(C(=O)c2snc(C(N)=O)c2N)c2ccc(C)cc2)ccc1O (centres unmarked) [Compound 71],7.94 µM,1.3443,−2.1806%,2.1,44,–,–,–,–,–,–,–,–,–
CC1CCN(S(=O)(=O)c2ccc(S(=O)(=O)N3CCCC3)cc2)CC1 [Compound 72],8.91 µM,2.3332,−2.3089%,2.1,44,–,–,–,–,–,–,–,–,–
CCC(CC)C(=O)Nc1c(C(=O)N2CCN(c3ccccc3)CC2)oc2ccccc12 [Compound 73],12.6 µM,4.095,16.3113%,2.1,44,–,–,–,–,–,–,–,–,–
COc1ccc(CCNC(=O)c2nn(C)c3c2CS(=O)(=O)c2ccccc2-3)cc1OC [Compound 74],4.47 µM,1.8617,−23.105%,2.1,44,–,–,–,–,–,–,–,–,–
COc1ccc(Nc2ncnc3ccc(Br)cc23)cc1OC [Compound 75],3.98 µM,1.5579,26.9551%,2.2,44,–,–,–,–,–,–,–,–,–
CCOc1ccc2ccccc2c1C1NC(=O)N(C)C(C)=C1C(=O)OCCOC (centres unmarked) [Compound 76],6.31 µM,1.3443,−8.518%,2.1,44,–,–,–,–,–,–,–,–,–
Cc1ccc(NC(=O)NCc2nc3ccccc3n2C)cc1 [Compound 77],4.47 µM,1.8617,−34.2328%,2.1,44,–,–,–,–,–,–,–,–,–
COc1ccc(C(=O)ONC(=N)c2cccc(C)c2)cc1OC [Compound 78],10 µM,1.7137,9.6566%,2.1,44,–,–,–,–,–,–,–,–,–

SMILES,AC50 [1],"Fit HillSlope (Table 12, curve fit)",Fit Zero Activity [%] [2],"Fit Curve Class (Table 12, key not given)",Score [3],Curve Description,Fit Curve Class,Fit HillSlope,Fit Infinite Activity [%],Fit Log AC50,Fit Zero Activity [%],Score,Fit Infinite Activity [%] [4],Fit Log AC50 [1]
CNc1cc([N+](=O)[O-])ccc1OCc1ccccc1 [Compound 79],4.47 µM,1.3437,−0.3646%,2.1,44,–,–,–,–,–,–,–,–,–
COC(=O)Cc1c(O)ccn(Cc2ccc3c(c2)OCO3)c1=O [Compound 80],10 µM,1.4163,−6.484%,2.1,44,–,–,–,–,–,–,–,–,–
O=C(Nc1ccccc1F)c1ccc([N+](=O)[O-])s1 [Compound 81],12.6 µM,4.5045,3.1931%,2.1,44,–,–,–,–,–,–,–,–,–
C/N=C(\S)N1CCC(NC(=O)C(Cc2ccc(F)cc2)NC(C)=O)CC1 (centres unmarked) [Compound 82],3.16 µM,1.1341,−6.4745%,2.1,44,–,–,–,–,–,–,–,89.9991%,–
CCS(=O)(=O)N1CCCC(C(=O)c2ccc(OC)cc2C)C1 (centres unmarked) [Compound 83],11.2 µM,2.0937,−12.9886%,2.1,44,–,–,–,–,–,–,–,–,–
CCCS(=O)(=O)N1CCCC(C(=O)c2cccc(Cl)c2)C1 (centres unmarked) [Compound 84],6.31 µM,1.2221,−7.9639%,2.1,44,–,–,–,–,–,–,–,–,–
CC(C)(C)c1ccc(C(=O)OCC(=O)Nc2sc3c(c2C#N)CCC3)cc1 [Compound 85],5.01 µM,1.8617,3.2331%,2.1,44,–,–,–,–,–,–,–,–,–
Cc1ccc(C2=C(CC(=O)O)C(=O)CC2)cc1 [Compound 86],4.47 µM,0.8,0.4963%,2.1,44,–,–,–,–,–,–,–,–,–
CN(C)c1ccnc2sc(C(N)=O)c(N)c12 [Compound 87],–,2.1211,21.3502%,2.2,44,–,–,–,–,–,–,–,–,–
C[C@H]1CNC(=O)c2c(C(=O)Nc3ccc(CNC(=O)OC(C)(C)C)cc3)ncn21 [Compound 88],8.91 µM,1.01,9.418%,2.1,43,–,–,–,–,–,–,–,–,–
CCCN(C(=O)c1ccc(S(=O)(=O)N2CCCC2)cc1)C1CCS(=O)(=O)C1 (centres unmarked) [Compound 89],5.01 µM,1.6924,−10.8957%,2.2,43,–,–,–,–,–,–,–,–,–
CN(CC(=O)Nc1cccc(F)c1)C(=O)c1ccc(-c2ccc(Cl)cc2)o1 [Compound 90],11.2 µM,4.5045,5.7331%,2.1,43,–,–,–,–,–,–,–,–,–
COc1ccc(C(=O)N/C(=C/c2cccnc2)C(=O)N2CCN(C)CC2)cc1OC [Compound 92],4.47 µM,1.6259,1.7602%,2.2,43,–,–,–,–,–,–,–,–,–
COc1cccc(C(=O)NCC(=O)N2CCC3(CC2)NCCc2[nH]cnc23)c1 [Compound 93],11.2 µM,1.7529,−3.6365%,2.1,43,–,–,–,–,–,–,–,–,–
COc1ccc(-c2csc3ncnc(N4CCN(c5ccccc5[N+](=O)[O-])CC4)c23)cc1 [Compound 94],–,4.9549,9.6823%,2.1,43,–,–,–,–,–,–,–,138.031%,−5
O=C(COc1cc2oc(=O)c3c(c2cc1Cl)CCCC3)NC[C@H]1CC[C@H](C(=O)O)CC1 [Compound 95],7.08 µM,1.01,−14.8966%,2.2,43,–,–,–,–,–,–,–,–,–
COCCn1c(=N)c(S(=O)(=O)c2ccc(Br)cc2)cc2c(=O)n3ccccc3nc21 [Compound 96],4.47 µM,1.9887,−8.0822%,2.2,43,–,–,–,–,–,–,–,–,–
CN(Cc1c(C(=O)N/N=C/c2cccc(F)c2)nnn1-c1nonc1N)c1ccccc1 [Compound 97],5.62 µM,3.132,1.2108%,2.2,43,–,–,–,–,–,–,–,–,–
